Values of other authors as cited in PubChem BioAssay AID1259409 (Chemical Carcinogenesis Research Information System (CCRIS), 2018).
Several values for one entry are separate records, joined by “and”; a condition that tells them apart may be missing. Equal entries are not always repeated.

Tested on: rodent chemically induced tumor inhibition, incidence and multiplicity
Assay: CCRIS tumor inhibitor studies

O=C1C=CC(=O)O1 (tested in a mixture with another compound)
tumour outcome (control, treated, inhibition, significance) (Carcinogen: N-BUTYL-N-(4-HYDROXYBUTYL)NITROSAMINE, 3817-11-6, Dose [Inhibitor]: 12.5 MG/KG IN 4 WK CYCLES OF 1/WK FOR 3 WK AND 1 WK REST STARTING 1 WK AFTER CARCINOGEN ADMINISTRATION THROUGH END OF ST, Route [Inhibitor]: INTRAPERITONEAL, Species: MOUSE, Strain/Sex: BDF1/MALE, Target Tissue: Type of Lesion: URINARY BLADDER: TRANSITIONAL CELL CARCINOMA, Dose [Carcinogen]: 7.5 MG 1/WK FOR 8 WK, Promoter: NONE USED): 19/50 (38%), 14/50 (28%), 26%, not significant | tumour outcome (control, treated, inhibition, significance) (Carcinogen: N-BUTYL-N-(4-HYDROXYBUTYL)NITROSAMINE, 3817-11-6, Dose [Inhibitor]: 12.5 MG/KG IN 4 WK CYCLES OF 3 WK DOSE (1 DOSE/WK) AND 1 WK REST STARTING 1 WK AFTER CARCINOGEN DOSE THROUGH END OF STUD, Route [Inhibitor]: INTRAPERITONEAL, Species: MOUSE, Strain/Sex: DBF1/MALE, Target Tissue: Type of Lesion: URINARY BLADDER: TRANSITIONAL CELL CARCINOMA, Dose [Carcinogen]: 7.5 MG 1/WK FOR 8 WK, Promoter: NONE USED): 19/50 (38%), 14/50 (28%), 26%, not significant | tumour outcome (control, treated, inhibition, significance) (Carcinogen: N-BUTYL-N-(4-HYDROXYBUTYL)NITROSAMINE, 3817-11-6, Dose [Inhibitor]: 25 MG/KG IN 4 WK CYCLES OF 1/WK FOR 3 WK AND 1 WK REST STARTING 1 WK AFTER CARCINOGEN ADMINISTRATION THROUGH END OF STUD, Route [Inhibitor]: INTRAPERITONEAL, Species: MOUSE, Strain/Sex: BDF1/MALE, Target Tissue: Type of Lesion: URINARY BLADDER: TRANSITIONAL CELL CARCINOMA, Dose [Carcinogen]: 7.5 MG 1/WK FOR 8 WK, Promoter: NONE USED): 19/50 (38%), 7/46 (15%), 61%, p<0.05 | tumour outcome (control, treated, inhibition, significance) (Carcinogen: N-BUTYL-N-(4-HYDROXYBUTYL)NITROSAMINE, 3817-11-6, Dose [Inhibitor]: 25 MG/KG IN 4 WK CYCLES OF 3 WK DOSE (1 DOSE/WK) AND 1 WK REST STARTING 1 WK AFTER CARCINOGEN DOSE THROUGH END OF STUDY, Route [Inhibitor]: INTRAPERITONEAL, Species: MOUSE, Strain/Sex: DBF1/MALE, Target Tissue: Type of Lesion: URINARY BLADDER: TRANSITIONAL CELL CARCINOMA, Dose [Carcinogen]: 7.5 MG 1/WK FOR 8 WK, Promoter: NONE USED): 19/50 (38%), 7/46 (15%), 61%, p<0.05 | tumour outcome (control, treated, inhibition, significance) (Carcinogen: N-METHYL-N-NITROSOUREA, 684-93-5, Dose [Inhibitor]: 12.5 MG/KG IN 4 WK CYCLES OF 1/WK FOR 3 WK AND 1 WK REST STARTING 7 D AFTER CARCINOGEN ADMINISTRATION THROUGH END OF STU, Route [Inhibitor]: INTRAPERITONEAL, Species: RAT, Strain/Sex: SPRAGUE-DAWLEY/FEMALE, Target Tissue: Type of Lesion: MAMMARY GLAND: ADENOCARCINOMA, Dose [Carcinogen]: 20 MG/KG BW ONCE, Promoter: NONE USED): 64%, 52%, 19%, not significant | tumour outcome (control, treated, inhibition, significance) (Carcinogen: N-METHYL-N-NITROSOUREA, 684-93-5, Dose [Inhibitor]: 12.5 MG/KG IN 4 WK CYCLES OF 3 WK DOSE (1 DOSE/WK) AND 1 WK REST STARTING 7 D AFTER CARCINOGEN DOSE THROUGH THE END OF S, Route [Inhibitor]: INTRAPERITONEAL, Species: RAT, Strain/Sex: SPRAGUE-DAWLEY/FEMALE, Target Tissue: Type of Lesion: MAMMARY GLAND: ADENOCARCINOMA, Dose [Carcinogen]: 20 MG/KG BW ONCE, Promoter: NONE USED): 64%, 52%, 19%, not significant | tumour outcome (control, treated, inhibition, significance) (Carcinogen: N-METHYL-N-NITROSOUREA, 684-93-5, Dose [Inhibitor]: 25 MG/KG IN 4 WK CYCLES OF 1/WK FOR 3 WK AND 1 WK REST STARTING 7 D AFTER CARCINOGEN ADMINISTRATION THROUGH END OF STUDY, Route [Inhibitor]: INTRAPERITONEAL, Species: RAT, Strain/Sex: SPRAGUE-DAWLEY/FEMALE, Target Tissue: Type of Lesion: MAMMARY GLAND: ADENOCARCINOMA, Dose [Carcinogen]: 20 MG/KG BW ONCE, Promoter: NONE USED): 64%, 50%, 22%, not significant | tumour outcome (control, treated, inhibition, significance) (Carcinogen: N-METHYL-N-NITROSOUREA, 684-93-5, Dose [Inhibitor]: 25 MG/KG IN 4 WK CYCLES OF 3 WK DOSE (1 DOSE/WK) AND 1 WK REST STARTING 7 D AFTER CARCINOGEN DOSE THROUGH END OF STUDY (, Route [Inhibitor]: INTRAPERITONEAL, Species: RAT, Strain/Sex: SPRAGUE-DAWLEY/FEMALE, Target Tissue: Type of Lesion: MAMMARY GLAND: ADENOCARCINOMA, Dose [Carcinogen]: 20 MG/KG BW ONCE, Promoter: NONE USED): 64%, 50%, 22%, not significant

Cc1cnc(NC(=O)C2=C(O)c3ccccc3S(=O)(=O)N2C)s1
tumour outcome (control, treated, inhibition, significance) (Carcinogen: N-NITROSOBIS(2-OXOPROPYL)AMINE [60599-38-4], Dose [Inhibitor]: 5 MG/KG EACH WEEKDAY OVER A PERIOD OF 16 WKS STARTING AT 4 WKS (STUDY DURATION: 20 WKS), Route [Inhibitor]: ORAL (GAVAGE?), Species: HAMSTER, Strain/Sex: SYRIAN GOLDEN/FEMALE, Target Tissue: Type of Lesion: GALL BLADDER: CARCINOMA IN SITU, Dose [Carcinogen]: 10 MG/KG BW AT WKS 4, 6, 8, 10, 12, 14, 16, 18 (8 DOSES) (STUDY DURATION: 20 WKS)): 4/11 (36%), 0/11 (0%), 100%, not significant

O=c1c(O)c(-c2ccc(O)cc2O)oc2cc(O)cc(O)c12
tumour outcome (control, treated, inhibition, significance) (Carcinogen: 4-NITROQUINOLINE-1-OXIDE [56-57-5], Dose [Inhibitor]: 100 PPM IN DIET FOR 10 WK BEGINNING 1 WK PRIOR TO FIRST CARCINOGEN DOSE (STUDY DURATION: 32 WK), Route [Inhibitor]: ORAL, Species: RAT, Strain/Sex: F344/MALE, Target Tissue: Type of Lesion: TONGUE: SQUAMOUS CELL PAPILLOMA, Dose [Carcinogen]: 20 PPM FOR 8 WK IN DRINKING WATER (STUDY DURATION: 32 WK), Promoter: NONE): 9/25 (36%), 3/19 (16%), 56%, not significant and 14/25 (56%), 1/19 (5%), 91%, p=0.0004 | tumour outcome (control, treated, inhibition, significance) (Carcinogen: 4-NITROQUINOLINE-1-OXIDE [56-57-5], Dose [Inhibitor]: 100 PPM IN DIET FOR 22 WK BEGINNING 1 WK POST LAST CARCINOGEN DOSE (STUDY DURATION: 31 WK), Route [Inhibitor]: ORAL, Species: RAT, Strain/Sex: F344/MALE, Target Tissue: Type of Lesion: TONGUE: SQUAMOUS CELL PAPILLOMA, Dose [Carcinogen]: 20 PPM FOR 8 WK IN DRINKING WATER (STUDY DURATION: 32 WK), Promoter: NONE): 9/25 (36%), 0/20 (0%), 100%, p=0.003 and 14/25 (56%), 1/20 (5%), 91%, p=0.0003 | tumour outcome (control, treated, inhibition, significance) (Carcinogen: 4-NITROQUINOLINE-1-OXIDE [56-57-5], Dose [Inhibitor]: 500 PPM IN DIET FOR 10 WK BEGINNING 1 WK PRIOR TO FIRST CARCINOGEN DOSE (STUDY DURATION: 32 WK), Route [Inhibitor]: ORAL, Species: RAT, Strain/Sex: F344/MALE, Target Tissue: Type of Lesion: TONGUE: SQUAMOUS CELL PAPILLOMA, Dose [Carcinogen]: 20 PPM FOR 8 WK IN DRINKING WATER (STUDY DURATION: 32 WK), Promoter: NONE): 9/25 (36%), 2/20 (10%), 72%, p=0.045 and 14/25 (56%), 0/20 (0%), 100%, p=0.00003 | tumour outcome (control, treated, inhibition, significance) (Carcinogen: 4-NITROQUINOLINE-1-OXIDE [56-57-5], Dose [Inhibitor]: 500 PPM IN DIET FOR 22 WK BEGINNING 1 WK POST LAST CARCINOGEN DOSE (STUDY DURATION: 31 WK), Route [Inhibitor]: ORAL, Species: RAT, Strain/Sex: F344/MALE, Target Tissue: Type of Lesion: TONGUE: SQUAMOUS CELL PAPILLOMA, Dose [Carcinogen]: 20 PPM FOR 8 WK IN DRINKING WATER (STUDY DURATION: 32 WK), Promoter: NONE): 14/25 (56%), 1/20 (5%), 91%, p=0.0003
